For series [1], the target named is histone deacetylase (HeLa nuclear extracts). Kind of series: In vitro assay for inhibition of histone deacetylase. In kind it is biochemical. Conditions: [3H]acetylated histone H4 peptide substrate. Here is the method: The in vitro assay for inhibition of histone deacetylase (see example C.1) measures the inhibition of HDAC enzymatic activity obtained with the compounds of formula (I).
HeLa nuclear extracts (supplier: Biomol) were incubated at 60 μg/ml with 2×10^−8 M of radiolabeled peptide substrate. As a substrate for measuring HDAC activity a synthetic peptide, i.e. the amino acids 14–21 of histone H4, was used. The substrate is biotinylated at the NH2-terminal part with a 6-aminohexanoic acid spacer, and is protected at the COOH-terminal part by an amide group and specifically [^3H]acetylated at lysine 16. The substrate, biotin-(6-aminohexanoic)Gly-Ala-([^3H]-acetyl-Lys-Arg-His-Arg-Lys-Val-NH2), was added in a buffer containing 25 mM Hepes, 1 M sucrose, 0.1 mg/ml BSA and 0.01% Triton X-100 at pH 7.4. After 30 min the deacetylation reaction was terminated by the addition of HCl and acetic acid. (final concentration 0.035 mM and 3.8 mM respectively). After stopping the reaction, the free ^3H-acetate was extracted with ethylacetate. After mixing and centrifugation, the radioactivity in an aliquot of the upper (organic) phase was counted in a β-counter.
For each experiment, controls (containing HeLa nuclear extract and DMSO without compound), a blank incubation (containing DMSO but no HeLa nuclear extract or compound) and samples (containing compound dissolved in DMSO and HeLa nuclear extract) were run in parallel. In first instance, compounds were tested at a concentration of 10^−5M. […] In each test the blank value was substracted from both the control and the sample values. The control sample represented 100% of substrate deactylation. For each sample the radioactivity was expressed as a percentage of the mean value of the controls. […] Herein the effects of test compounds are expressed as pIC50 (the negative log value of the IC50-value).

The subject of series [2] is A2780 ovarian carcinoma cells. The experiment in a line: Antiproliferative activity on A2780 cells (MTT). Conditions: four days of incubation; for IC50: Homo sapiens, A2780, 96 h, read-out: Cellular activity pIC50 (converted). In kind it is cell-based, human. As for the experimental part:
Cellular activity of the compounds of formula (I) was determined on A2780 tumour cells using a colorimetric assay for cell toxicity or survival (Mosmann Tim, Journal of Immunological Methods 65: 55–63, 1983)(see example C.2).
All compounds tested were dissolved in DMSO and further dilutions were made in culture medium. Final DMSO concentrations never exceeded 0.1% (v/v) in cell proliferation assays. Controls contained A2780 cells and DMSO without compound and blanks contained DMSO but no cells. MTT was dissolved at 5 mg/ml in PBS. A glycine buffer comprised of 0.1 M glycine and 0.1 M NaCl buffered to pH 10.5 with NaOH (1 N) was prepared (all reagents were from Merck).
The human A2780 ovarian carcinoma cells (a kind gift from Dr. T. C. Hamilton [Fox Chase Cancer Centre, Pennsylvania, USA]) were cultured in RPMI 1640 medium supplemented with 2 mM L-glutamine, 50 μg/ml gentamicin and 10% fetal calf serum. Cells were routinely kept as monolayer cultures at 37° C. in a humidified 5% CO2 atmosphere. Cells were passaged once a week using a trypsin/EDTA solution at a split ratio of 1:40. All media and supplements were obtained from Life Technologies. Cells were free of mycoplasma contamination as determined using the Gen-Probe Mycoplasma Tissue Culture kit (supplier: BioMérieux).
Cells were seeded in NUNC™ 96-well culture plates (Supplier: Life Technologies) and allowed to adhere to the plastic overnight. Densities used for plating were 1500 cells per well in a total volume of 200 μl medium. After cell adhesion to the plates, medium was changed and drugs and/or solvents were added to a final volume of 200 μl. Following four days of incubation, medium was replaced by 200 μl fresh medium and cell density and viability was assessed using an MTT-based assay. To each well, 25 μl MTT solution was added and the cells were further incubated for 2 hours at 37° C. The medium was then carefully aspirated and the blue MTT-formazan product was solubilized by addition of 25 μl glycine buffer followed by 100 μl of DMSO. […] Within an experiment, the results for each experimental condition are the mean of 3 replicate wells. For initial screening purposes, compounds were tested at a single fixed concentration of 10^−6 M. For active compounds, the experiments were repeated to establish full concentration-response curves. For each experiment, controls (containing no drug) and a blank incubation (containing no cells or drugs) were run in parallel. The blank value was subtracted from all control and sample values. For each sample, the mean value for cell growth (in absorbance units) was expressed as a percentage of the mean value for cell growth of the control. […] Herein the effects of test compounds are expressed as pIC50 (the negative log value of the IC50-value).

A short description of series [3]: Kinetic solubility in aqueous media (nephelometry). In kind it is physicochemical. As to conditions: phosphate citrate buffer, pH 7.4, aqueous buffer, kinetic from dmso stock, phosphate citrate buffer pH 7.4, turbidity of three dilution steps; read-out: Solubility Score. Here is the method:
Kinetic solubility in aqueous media measures the ability of a compound to stay in aqueous solution upon dilution (see example C.3).
DMSO-stock solutions are diluted with a single aqueous buffer solvent in 3 consecutive steps. For every dilution turbidity is measured with a nephelometer.
In the first dilution step, 10 μl of a concentrated stock-solution of the active compound, solubilized in DMSO (5 mM), was added to 100 μl phosphate citrate buffer pH 7.4 and mixed. In the second dilution step, an aliquot (20 μl) of the first dilution step was further dispensed in 100 μl phosphate citrate buffer pH 7.4 and mixed. Finally, in the third dilution step, a sample (20 μl) of the second dilution step was further diluted in 100 μl phosphate citrate buffer pH 7.4 and mixed. All dilutions were performed in 96-well plates. Immediately after the last dilution step the turbidity of the three consecutive dilution steps were measured with a nephelometer. Dilution was done in triplicate for each compound to exclude occasional errors. Based on the turbidity measurements a ranking is performed into 3 classes. Compounds with high solubility obtained a score of 3 and for this compounds the first dilution is clear. Compounds with medium solubility obtained a score of 2. For these compounds the first dilution is unclear and the second dilution is clear. […] The solubility of 112 compounds was measured.

What is called solubility is the concentration that dissolves in the medium under given conditions. Regarding `O=C(NO)c1cnc(N2CCN(S(=O)(=O)c3ccc(-c4ccccc4Cl)cc3)CC2)nc1` [Compound 108], in series [1], the “Enzyme activity pIC50” value was 8.117. Besides, the IC50 in series [2] is 209 nM. The solubility in series [3] was less than 75.8 µM.
Regarding `O=C(NO)c1ccc(N2CCN(S(=O)(=O)c3ccc4ccccc4c3)CC2)nc1` [Compound 142], the “Enzyme activity pIC50” value in series [1] is on record as 8.01. Also, the IC50 in series [2] was 286 nM. Also, the solubility in series [3] was greater than 454 µM.
In the same order, the values of `Nc1ccccc1NC(=O)c1ccc(N2CCN(S(=O)(=O)c3ccc4ccccc4c3)CC2)cc1` [Compound 17] are less than 5, 764 nM and less than 75.8 µM.
As to `O=C(NO)c1cnc(N2CCN(S(=O)(=O)c3ccc(-c4ccc(CN5CCOCC5)cc4)cc3)CC2)nc1` [Compound 162], in series [2], the IC50 is 117 nM and the “Cellular activity pIC50” value worked out at 7.039.
For the molecule `O=C1CCC(C(=O)Nc2ccc(N3CCN(S(=O)(=O)c4ccc5ccccc5c4)CC3)cc2)N1` (stereo not shown) [Compound 84], the “Enzyme activity pIC50” value in series [1] is given as less than 5. The IC50 in series [2] is greater than 10000 nM.
`CN(C)Cc1ccc(-c2ccc(S(=O)(=O)N3CCN(c4ncc(C(=O)NO)cn4)CC3)cc2)cc1` [Compound 163]: the “Enzyme activity pIC50” value in series [1] was determined as 8.553. Besides, in series [2], the IC50 is 42.7 nM.
Turning to `O=C(NO)c1ccc(C(=O)N2CCN(S(=O)(=O)c3ccc4ccccc4c3)CC2)cc1` [Compound 89], the “Enzyme activity pIC50” value in series [1] is given as 6.423. Moreover, the IC50 in series [2] is 6070 nM.
As to `O=C(Nc1ccc(N2CCN(S(=O)(=O)c3ccc4ccccc4c3)CC2)cc1)c1ccc(=O)[nH]c1` [Compound 86], the “Enzyme activity pIC50” value in series [1] was less than 5. In series [2], the IC50 is greater than 10000 nM.
In the same order, the values of `CC(C)(C)c1ccc(S(=O)(=O)N2CCN(c3ncc(C(=O)NO)cn3)CC2)cc1` [Compound 92] are 7.876 and 723 nM.
Turning to `O=C(NO)c1cnc(N2CCCN(S(=O)(=O)c3ccc4ccccc4c3)CC2)nc1` [Compound 141], the “Enzyme activity pIC50” value in series [1] is recorded as 7.125. The IC50 in series [2] is 991 nM.
The like results for `O=C(NCCO)c1ccc(N2CCN(S(=O)(=O)c3ccc4ccccc4c3)CC2)cc1` [Compound 16] were, in that order, less than 5 and greater than 10000 nM.
In the same order, the values of `Nc1ccc(-c2ccc(S(=O)(=O)N3CCN(c4ncc(C(=O)NO)cn4)CC3)cc2)cc1` [Compound 140] are 7.739 and 99.8 nM.
In the same order, the values of `Cc1cnc(C(=O)Nc2ccc(N3CCN(S(=O)(=O)c4ccc5ccccc5c4)CC3)cc2)cn1` [Compound 85] are less than 5 and greater than 10000 nM.
Take `O=C(NO)c1cnc(N2CCN(S(=O)(=O)c3ccc(-c4ccsc4)cc3)CC2)nc1` [Compound 104]: the “Enzyme activity pIC50” value in series [1] worked out at 8.152. Further, the IC50 in series [2] is 58.5 nM.
Turning to `O=C(NO)c1cnc(N2CCN(S(=O)(=O)c3ccc(-c4ccccc4OCCN4CCOCC4)cc3)CC2)nc1` [Compound 153], in series [1], the “Enzyme activity pIC50” value is 8.7. The IC50 in series [2] is 275 nM.
The like results for `O=C(NO)c1cnc(N2CCN(S(=O)(=O)c3ccc4ccccc4c3)CC2)nc1N1CCN(S(=O)(=O)c2ccc3ccccc3c2)CC1` [Compound 117] were, in that order, less than 5 and 1740 nM.
In the same order, the values of `O=C(NO)c1cnc(N2CCN(S(=O)(=O)c3ccc(-c4ccc(CO)cc4)cc3)CC2)nc1` [Compound 139] are 7.612 and 55.2 nM.
The like results for `CN(C)CCCOc1ccc(-c2ccc(S(=O)(=O)N3CCN(c4ncc(C(=O)NO)cn4)CC3)cc2)cc1` [Compound 156] were, in that order, 8.568 and 30 nM.
Regarding `O=C(NO)c1cccc(CN2CCN(S(=O)(=O)c3ccc4ccccc4c3)CC2)c1` [Compound 7], the “Enzyme activity pIC50” value in series [1] is given as less than 5.
Same read-out and setting: to `O=C(NO)c1cc([N+](=O)[O-])ccc1N1CCN(S(=O)(=O)c2ccc(Cl)s2)CC1` [Compound 22] belongs less than 5.
For the molecule `O=C(NO)c1ccc(N2CCN(S(=O)(=O)c3cc(C(F)(F)F)cc(C(F)(F)F)c3)CC2)cc1` [Compound 75], the “Enzyme activity pIC50” value in series [1] is less than 5. Besides, the IC50 in series [2] was 6870 nM.
In the same order, the values of `O=C(NO)c1cnc(N2CCN(S(=O)(=O)c3ccc(-c4cc(C(F)(F)F)cc(C(F)(F)F)c4)cc3)CC2)nc1` [Compound 180] are less than 5 and greater than 10000 nM.
`COc1ccc(-c2ccc(S(=O)(=O)N3CCN(c4ncc(C(=O)NO)cn4)CC3)cc2)cc1OC` [Compound 101]: in series [1], the “Enzyme activity pIC50” value was 6.671. Also, the IC50 in series [2] was 101 nM.
For the molecule `O=C(NO)c1cnc(N2CCN(S(=O)(=O)c3ccc(-c4ccc(OCCN5CCOCC5)cc4)cc3)CC2)nc1` [Compound 155], in series [1], the “Enzyme activity pIC50” value is listed as 7.939. For the same molecule, the IC50 in series [2] was 87.1 nM.
On to `O=C(NO)c1cnc(N2CCN(S(=O)(=O)c3ccc4c(Cl)cccc4c3)CC2)nc1` [Compound 97], for which the “Enzyme activity pIC50” value in series [1] turned out to be 7.938. Further, in series [2], the IC50 was 125 nM.
Consider `O=C(NO)c1ccc(N2CCCN(S(=O)(=O)c3ccc4ccccc4c3)CC2)cc1` [Compound 1], for which the “Enzyme activity pIC50” value in series [1] was determined as 6.482. In series [2], the IC50 is greater than 10000 nM.
Consider `O=C(Nc1ccc(N2CCN(S(=O)(=O)c3ccc4ccccc4c3)CC2)cc1)c1ccc[nH]c1=O` [Compound 87], for which the “Enzyme activity pIC50” value in series [1] is recorded as less than 5. In series [2], the IC50 is greater than 10000 nM.
Turning to `O=C(NO)c1cnc(N2CCN(S(=O)(=O)c3ccc(-c4ccc5[nH]ccc5c4)cc3)CC2)nc1` [Compound 132], the “Enzyme activity pIC50” value in series [1] is given as 7.162. Moreover, the IC50 in series [2] is 461 nM.
Consider `COc1ccc(OC)c(S(=O)(=O)N2CCN(c3ccc(C(=O)NO)cc3)CC2)c1` [Compound 77], for which the “Enzyme activity pIC50” value in series [1] is listed as 5.937. For the same molecule, in series [2], the IC50 was 7100 nM.
On to `CN(C)CCN(C)Cc1sccc1-c1ccc(S(=O)(=O)N2CCN(c3ncc(C(=O)NO)cn3)CC2)cc1` [Compound 146], for which the “Enzyme activity pIC50” value in series [1] turned out to be 8.565. In series [2], the IC50 is 119 nM.

The values above are taken from patent US7205304B2, “Sulfonyl-Derivatives as novel inhibitors of histone deacetylase” (Janssen Pharmaceutica N.V., priority 2002, dated 2007).
